Our source for the EC50 and IC50 values is US8217035B2, “Pyrimidine derivatives used as PI-3-kinase inhibitors” (Novartis AG, priority 2006, dated 2012).

The subject of assay [1] is pSer473 Akt in A2780 cells. As to the kind of experiment: pSer473 Akt assay to monitor PI3K pathway in A2780 cells (Biological Method 2, MSD). Format: cell-based. Conditions: Homo sapiens, inhibition of Akt phosphorylation. In a few lines:
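A2780 ovarian cancer cells in DMEM/10% FBS were treated with compound for 1 h at 37 °C, then lysed. pSer473-Akt and total Akt were measured by MSD electrochemiluminescence immunoassay. The pSer473/total Akt ratio gave % inhibition versus DMSO, from which EC50 was derived.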

The target of assay [2] is PI3 kinase alpha (Homo sapiens, UniProt P42336). Nature of the assay: PI3K ATP depletion assay (Biological Method 1, Assay 3; KinaseGlo luminescence). Conditions: ATP depletion assay, read-out: PI3 Kinase Alpha, IC50. Format: biochemical. In a few lines:
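Compound in DMSO was mixed with 10 nM PI3 kinase and 5 μg/mL phosphatidylinositol, and the reaction was started with 2 μM ATP. It ran to about 50% ATP depletion and was stopped with KinaseGlo.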

In assay [3] the test system is A2780 ovarian cancer cells. Nature of the assay: Cellular proliferation in A2780 cells, Cell Titer Glo (Biological Method 4). Format: cell-based. Conditions: Homo sapiens. In a few lines: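 A2780 cells seeded at 1,000/well in DMEM with 10% FBS, at least 2 h before compound, then exposed 72 h at 37 °C, 5% CO2. Viable cells measured by Cell Titer Glo luminescence; EC50 calculated from duplicate conditions.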

Where two headings read alike, the source gives them in different places.

Sequence of PI3 kinase alpha (P42336 whole entry): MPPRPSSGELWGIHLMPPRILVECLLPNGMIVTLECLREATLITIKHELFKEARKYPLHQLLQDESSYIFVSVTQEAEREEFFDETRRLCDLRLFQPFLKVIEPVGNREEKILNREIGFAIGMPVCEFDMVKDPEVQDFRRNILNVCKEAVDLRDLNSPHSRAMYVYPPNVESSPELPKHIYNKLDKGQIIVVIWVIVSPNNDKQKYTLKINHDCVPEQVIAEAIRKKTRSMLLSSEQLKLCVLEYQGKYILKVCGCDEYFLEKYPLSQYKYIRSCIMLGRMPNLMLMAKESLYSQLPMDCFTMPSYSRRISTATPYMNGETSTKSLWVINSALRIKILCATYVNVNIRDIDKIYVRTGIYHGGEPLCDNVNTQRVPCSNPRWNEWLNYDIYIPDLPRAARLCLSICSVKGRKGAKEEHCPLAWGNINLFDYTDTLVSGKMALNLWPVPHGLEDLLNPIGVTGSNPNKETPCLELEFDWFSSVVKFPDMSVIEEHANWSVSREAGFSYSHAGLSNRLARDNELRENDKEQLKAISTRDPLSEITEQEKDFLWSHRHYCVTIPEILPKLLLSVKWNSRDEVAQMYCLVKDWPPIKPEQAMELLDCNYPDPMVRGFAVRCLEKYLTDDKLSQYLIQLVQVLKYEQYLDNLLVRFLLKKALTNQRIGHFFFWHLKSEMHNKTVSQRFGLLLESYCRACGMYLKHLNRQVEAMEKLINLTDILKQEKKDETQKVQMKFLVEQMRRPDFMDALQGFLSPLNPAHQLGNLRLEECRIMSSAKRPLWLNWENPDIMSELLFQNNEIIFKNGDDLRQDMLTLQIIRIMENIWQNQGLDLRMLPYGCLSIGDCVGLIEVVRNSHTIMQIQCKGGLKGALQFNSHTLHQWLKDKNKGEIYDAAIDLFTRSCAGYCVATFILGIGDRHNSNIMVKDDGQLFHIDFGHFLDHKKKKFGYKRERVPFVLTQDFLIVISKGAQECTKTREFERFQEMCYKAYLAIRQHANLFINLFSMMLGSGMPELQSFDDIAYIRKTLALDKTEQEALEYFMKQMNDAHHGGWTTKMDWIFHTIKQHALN
Sequence of PI3 kinase alpha (P27986 whole entry partner): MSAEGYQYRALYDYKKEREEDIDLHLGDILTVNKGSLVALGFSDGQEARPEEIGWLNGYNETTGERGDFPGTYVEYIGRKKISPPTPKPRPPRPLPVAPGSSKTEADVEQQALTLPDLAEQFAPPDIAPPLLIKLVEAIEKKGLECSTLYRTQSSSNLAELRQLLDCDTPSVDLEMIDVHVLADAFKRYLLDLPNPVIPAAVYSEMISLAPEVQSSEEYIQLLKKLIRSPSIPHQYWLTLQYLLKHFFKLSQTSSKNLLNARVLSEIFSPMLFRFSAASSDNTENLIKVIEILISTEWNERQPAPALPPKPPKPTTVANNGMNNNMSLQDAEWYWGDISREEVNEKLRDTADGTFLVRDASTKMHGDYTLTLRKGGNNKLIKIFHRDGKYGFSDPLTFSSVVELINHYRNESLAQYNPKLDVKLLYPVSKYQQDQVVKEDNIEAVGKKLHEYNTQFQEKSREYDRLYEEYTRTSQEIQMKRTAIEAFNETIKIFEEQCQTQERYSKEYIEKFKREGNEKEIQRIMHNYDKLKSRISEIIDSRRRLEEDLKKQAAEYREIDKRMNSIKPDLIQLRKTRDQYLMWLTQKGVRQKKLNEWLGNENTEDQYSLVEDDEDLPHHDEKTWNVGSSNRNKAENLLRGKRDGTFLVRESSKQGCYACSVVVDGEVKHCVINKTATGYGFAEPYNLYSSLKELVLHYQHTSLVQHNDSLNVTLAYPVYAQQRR

Consider `Cc1cc(Nc2cc(-c3cnc(N)nc3C(F)(F)F)nc(N3CCOCC3)n2)ccn1` [Compound 52], for which the EC50 in assay [1] (A2780 cells) and in assay [3] (ovarian cancer cell line A2780) was less than 1000 nM throughout. The 50% inhibitory concentration (IC50) in assay [2] was less than 1000 nM.
`CC(C)N1CC[C@@H](Oc2ccc(Nc3cc(-c4cnc(N)cc4C(F)(F)F)nc(N4CCOCC4)n3)cn2)C1` [Compound 86]: the EC50 in assay [1] (A2780 cells) and in assay [3] (ovarian cancer cell line A2780) was less than 1000 nM throughout. The IC50 in assay [2] was less than 1000 nM.
With `N#Cc1cc(N)ncc1-c1cc(OC2CCOCC2)nc(N2CCOCC2)n1` [Compound 118], the EC50 in assay [1] (A2780 cells) and in assay [3] (ovarian cancer cell line A2780) was less than 1000 nM each time. Besides, in assay [2], the IC50 is less than 1000 nM.
`COC(=O)N1CCC(Oc2cc(-c3cnc(N)[nH]c3=O)nc(N3CCOCC3)n2)CC1` [Compound 31]: the EC50 in assay [1] (A2780 cells) and in assay [3] (ovarian cancer cell line A2780) was less than 1000 nM each time. Further, the IC50 in assay [2] is less than 1000 nM.
On to `Nc1ncc(-c2cc(Nc3ccc4nccnc4c3)nc(N3CCOCC3)n2)cn1` [Compound 38], for which the EC50 in assay [1] (A2780 cells) and in assay [3] (ovarian cancer cell line A2780) was less than 1000 nM throughout. Besides, the IC50 in assay [2] is less than 1000 nM.
Turning to `CC(=O)N1CCC(Oc2cc(-c3cnc(N)nc3C(F)(F)F)nc(N3CCOCC3)n2)CC1` [Compound 119], the EC50 in assay [1] (A2780 cells) and in assay [3] (ovarian cancer cell line A2780) was less than 1000 nM in each case. For the same compound, the IC50 in assay [2] is less than 1000 nM.
As to `Nc1ncc(-c2cc(Nc3ccc4c(c3)OCCO4)nc(N3CCOCC3)n2)cn1` [Compound 67], the EC50 in assay [1] (A2780 cells) and in assay [3] (ovarian cancer cell line A2780) was less than 1000 nM throughout. In addition, in assay [2], the IC50 was less than 1000 nM.
For the compound `CS(=O)(=O)c1ccc(Nc2cc(-c3cnc(N)nc3N)nc(N3CCOCC3)n2)cn1` [Compound 214], the EC50 in assay [1] (A2780, Biological Method 2) is less than 10000 nM; in assay [3] (ovarian cancer cell line A2780, Biological Method 4) it was less than 25000 nM. Moreover, the IC50 in assay [2] (Biological Method 1) was less than 1000 nM.
For the compound `Nc1ncc(-c2cc(OC3CCN(C(=O)OCc4ccccc4)CC3)nc(N3CCOCC3)n2)c(=O)[nH]1` [Compound 34], the EC50 in assay [1] (A2780 cells) and in assay [3] (ovarian cancer cell line A2780) was less than 1000 nM throughout. In addition, the IC50 in assay [2] is less than 1000 nM.
On to `Nc1ncc(-c2cc(Nc3ccc(N4CCNCC4)nc3)nc(N3CCOCC3)n2)cn1` [Compound 9], for which the EC50 in assay [1] (A2780 cells) and in assay [3] (ovarian cancer cell line A2780) was less than 1000 nM throughout. Further, in assay [2], the IC50 is less than 1000 nM.
For the compound `CC(C)C(=O)N1CCC[C@@H](Oc2cc(-c3cnc(N)nc3N)nc(N3CCOCC3)n2)C1` [Compound 137], the EC50 in assay [1] (A2780 cells) is less than 1000 nM; in assay [3] (ovarian cancer cell line A2780) it was less than 10000 nM. Also, the IC50 in assay [2] was less than 1000 nM.
`CC(C)N1CCC(Oc2ccc(Nc3cc(-c4cnc(N)cc4C(F)(F)F)nc(N4CCOCC4)n3)cc2)CC1` [Compound 552]: the EC50 is less than 1000 nM in assay [1] (A2780) and less than 10000 nM in assay [3] (ovarian cancer cell line A2780). In assay [2], the IC50 was less than 1000 nM.
For `Cc1cc(Nc2cc(-c3cnc(N)cc3C(F)(F)F)nc(N3CCOCC3)n2)ccn1` [Compound 110], the EC50 in assay [1] (A2780 cells) and in assay [3] (ovarian cancer cell line A2780) was less than 1000 nM each time. For the same compound, the IC50 in assay [2] is less than 1000 nM.
As to `Nc1ncc(-c2cc(O[C@@H]3CCOC3)nc(N3CCOCC3)n2)c(N)n1` [Compound 108], the EC50 in assay [1] (A2780 cells) and in assay [3] (ovarian cancer cell line A2780) was less than 1000 nM each time. The IC50 in assay [2] was less than 1000 nM.
With `NC(=O)c1ccc(Nc2cc(-c3ccc(N)nc3)nc(N3CCOCC3)n2)cc1` [Compound 197], the values for the EC50 in assay [1] (A2780 cells) and in assay [3] (ovarian cancer cell line A2780) were less than 1000 nM and less than 10000 nM, respectively. For the same compound, the IC50 in assay [2] is less than 1000 nM.
`Nc1ccc(-c2cc(Nc3ccncc3F)nc(N3CCOCC3)n2)cn1` [Compound 196]: the EC50 in assay [1] (A2780 cells) and in assay [3] (ovarian cancer cell line A2780) was less than 1000 nM in each case. Besides, the IC50 in assay [2] was less than 1000 nM.
For `N#Cc1cnccc1Nc1cc(-c2ccc(N)nc2)nc(N2CCOCC2)n1` [Compound 191], the EC50 in assay [1] (A2780 cells) is less than 1000 nM; in assay [3] (ovarian cancer cell line A2780), less than 10000 nM. The IC50 in assay [2] was less than 1000 nM.
With `Nc1ccc(-c2cc(Nc3cnc4ccccc4c3)nc(N3CCOCC3)n2)c(F)n1` [Compound 169], the EC50 in assay [1] (A2780 cells) and in assay [3] (ovarian cancer cell line A2780) was less than 1000 nM each time. Besides, the IC50 in assay [2] was less than 1000 nM.
Turning to `CC(C)OC(=O)N1CCC(Oc2cc(-c3cnc(N)nc3N)nc(N3CCOCC3)n2)CC1` [Compound 131], the EC50 in assay [1] (A2780 cells) and in assay [3] (ovarian cancer cell line A2780) was less than 1000 nM throughout. Besides, in assay [2], the IC50 is less than 1000 nM.
